Reference: patent US20240409536A1, “COMPOUNDS AND METHODS FOR MODULATING SPLICING” (REMIX THERAPEUTICS INC., priority 2021, published 2024)
pIC50: −log10 of the molar value. Like-named read-outs stand apart in the source and are kept apart here.

How the values were obtained:
HTT mRNA [1] = test: Gene panel canonical junction qPCR assay, HTT CJ mRNA decrease; type: cell-based, human
Experimental: (§1) Compounds described herein were used to modulate RNA transcript abundance in cells. The expression of a target mRNA was measured by detecting the formation of an exon-exon junction in the canonical transcript (CJ). A compound mediated exon-inclusion event was detected by observing an increase in formation of a new junction with an alternative exon (AJ). Real-time qPCR assays were used to detect these splicing switches and interrogate the potency of various compounds towards different target genes. A high-throughput real time quantitative PCR (RT-qPCR) assay was developed to measure these two isoforms of the mRNA (CJ and AJ) for exemplary genes, such as HTT, SMN2, and MYB, together with a control housekeeping gene, GAPDH or GUSB or PPIA, used for normalization. Briefly, the A673 or K562 cell line was treated with various compounds described herein (e.g., compounds of Formula (I), (I), or (III)). After treatment, the levels of the HTT, MYB, or SMN2 mRNA targets were determined from each sample of cell lysate by cDNA synthesis followed by qPCR.
(§2) The data analysis was performed by first determining the ΔCt vs the housekeeper gene. This ΔCt was then normalized against the DMSO control (ΔΔCt) and converted to RQ (relative quantification) using the 2^(−ΔΔCt) equation. The RQ were then converted to a percentage response by arbitrarily setting an assay window of 3.5 and 4.0 ΔCt for HTT-CJ and MYB-CJ respectively and an assay window of 9 and 3 ΔCt for HTT-AJ and MYB-AJ in 96 well format (50,000 K562 cells/well and 15,000 A673 cells per well) and an assay window of 3 and 4 ΔCt for HTT-CJ and MYB-CJ respectively and an assay window of 5 and 3 ΔCt for HTT-AJ and MYB-AJ respectively in 384 well format (8,000 K562 cells/well example). […] The percentage response was then fitted to the 4 parametric logistic equation to evaluate the concentration dependence of compound treatment. The increase in AJ mRNA is reported as AC50 (compound concentration having […] in AJ increase) while the decrease in CJ mRNA levels is reported as IC50 (compound concentration having 50) response in CJ decrease).
(§3) Additional studies were carried out for a larger panel of genes using the protocol provided above. The junction between flanking upstream and downstream exons was used to design canonical junction qPCR assays. At least one of the forward primer, reverse primer or the CY5-labeled 5′ nuclease probe (with 3′ quencher such as ZEN/Iowa Black FQ) was designed to overlap with the exon junction to capture the CJ mRNA transcript. BLAST was used to confirm the specificity of the probeset and parameters such as melting temperature, GC content, amplicon size, and primer dimer formation are considered during their design. Data for the decrease in CJ mRNA levels for four exemplary genes (HTT, SMN2, MYB, and Target C) analyzed in this panel are reported as IC50 (compound concentration having […] in CJ decrease).
(§4) A summary of the results from the panel is illustrated in Tables 5A and 51B, wherein “A” represents an IC50 of less than 100 nM; “B” represents an IC50 of between 100 nM and 1 μM; and “C” represents an IC50 of between 1 μM and 10 μM; and “D” represents an IC50 of greater than 10 μM.

Target C mRNA = test: Gene panel canonical junction qPCR assay, Target C CJ mRNA decrease; type: cell-based; conditions: Homo sapiens, decrease in CJ mRNA levels, read-out: Target C IC50
Experimental: as §1, §2, §3, §4

MYB mRNA [2] = test: Gene panel canonical junction qPCR assay, MYB CJ mRNA decrease; type: cell-based, human
Experimental: as §1, §2, §3, §4

SMN2 mRNA = test: Gene panel canonical junction qPCR assay, SMN2 CJ mRNA decrease; type: cell-based, human
Experimental: as §1, §2, §3, §4

MYB mRNA [3] = test: Splicing RT-qPCR assay, MYB canonical (CJ) and alternative (AJ) junction mRNA; type: cell-based; conditions: Homo sapiens, A673 or K562 cells, 24 hours
Experimental: as §1
(§5) • Cells-to-CT 1-step kit: ThermoFisher A25602, Cells-to-CT lysis reagent: ThermoFisher 4391851C, TaqMan™ Fast Virus 1-Step Master Mix: ThermoFisher 4444436 • GAPDH: VIC-PL, ThermoFisher 4326317E (Assay: Hs99999905_ml)—used for K562/suspension cell lines • GUSB: VIC-PL, ThermoFisher 4326320E (Assay: Hs99999908_ml)—used for K562/suspension cell lines • PPIA: VIC-PL, ThermoFisher 4326316E (Assay: Hs99999904_ml)—used for A673/adherent cell lines
(§6) The A673 cell line was cultured in DMEM with 10% FBS. Cells were diluted with full growth media and plated in a 96-well plate (15,000 cells in 100 ul media per well). The plate was incubated at 37° C. with 5% CO2 for 24 hours to allow cells to adhere. An 11-point 3-fold serial dilution of the compounds was made in DMSO then diluted in media in an intermediate plate. Compounds were transferred from the intermediate plate to the cell plate with the top dose at a final concentration of 10 uM in the well. Final DMSO concentration was kept at or below 0.25%. The cell plate was returned to the incubator at 37° C. with 5% CO2 for an additional 24 hours.
(§7) The K562 cell line was cultured in IMDM with 10% FBS. For K562, cells were diluted with full growth media and plated in either a 96-well plate (50,000 cells in 50 uL media per well) or a 384-well plate (8,000-40,000 cells in 45 uL media per well). An 11-point 3-fold serial dilution of the compounds were made in DMSO then diluted in media in an intermediate plate. Compound was transferred from the intermediate plate to the cell plate with the top dose at a final concentration of 10 uM in the well. Final DMSO concentration was kept at or below 0.25%. Final volume was 100 uL for 96-well plate and 50 uL for 384-well plate. The cell plate was then placed in an incubator at 37° C. with 5% CO2 for 24 hours.
(§8) The cells were then gently washed with 50 uL-100 uL cold PBS before proceeding to addition of lysis buffer. 30 uL-50 uL of room temperature lysis buffer with DNAse I (and optionally RNAsin) was added to each well. Cells were shaken/mixed thoroughly at room temperature for 5-10 minutes for lysis to take place and then 3 uL-5 uL of room temperature stop solution was added and wells were shaken/mixed again. After 2-5 minutes, the cell lysate plate was transferred to ice for RT-qPCR reaction setup. The lysates could also be frozen at −80° C. for later use.
(§9) In some cases, a direct lysis buffer was used. An appropriate volume of 3×lysis buffer (10 mM Tris, 150 mM NaCl, 1.5%-2.5% Igepal and 0.1-1 U/uL RNAsin, pH 7.4) was directly added to either K562 or A673 cells in media and mixed by pipetting 3 times. The plates were then incubated at room temperature with shaking/rocking for 20-50 minutes to allow for lysis to take place. After this time, the cell lysate plate was transferred to ice to set up for the RT-qPCR reactions. The lysates could also be frozen at −80° C. for later use. […]

HTT mRNA [4] = test: Splicing RT-qPCR assay, HTT canonical (CJ) and alternative (AJ) junction mRNA; type: cell-based; conditions: Homo sapiens, A673 or K562 cells, 24 hours
Experimental: as §1, §5, §6, §7, §8, §9

[5] = Homo sapiens, decrease in CJ mRNA levels, read-out: HTT IC50
[6] = Homo sapiens, decrease in CJ mRNA levels, read-out: MYB IC50
[7] = Homo sapiens, decrease in CJ mRNA levels, read-out: SMN2 IC50
[8] = decrease in canonical junction mRNA
[9] = increase in alternative junction mRNA

SMILES	pIC50 (HTT mRNA [1]; [5])	pIC50 (Target C mRNA)	pIC50 (MYB mRNA [2]; [6])	pIC50 (SMN2 mRNA; [7])	further results
Cc1cn2nc(NC(=O)c3sc(N4CCNC(C)C4)cc3F)cc2c(C)n1 (stereo not shown) [Compound 643]	< 5.00	< 5.00	< 5.00	< 5.00	
Cc1cn2cc(NC(=O)c3sc(N4CCNC(C)C4)cc3F)cc(F)c2n1 (stereo not shown) [Compound 601]	5.00 to 6.00	5.00 to 6.00	6.00 to 7.00		
Cc1cn2nc(NC(=O)c3sc([C@@H]4CCN[C@@H](C)C4)cc3F)cc(C)c2n1 [Compound 579]	> 7.00	6.00 to 7.00	> 7.00	6.00 to 7.00	
Cc1cn2cc(NC(=O)c3sc([C@@H]4CCN[C@H](C)C4)cc3F)cc(C(F)(F)F)c2n1 [Compound 668]	< 5.00		5.00 to 6.00	< 5.00	
Cc1cn2cc(NC(=O)c3sc(N4CCC(N(C)C)CC4)cc3F)cc(F)c2n1 [Compound 613]	5.00 to 6.00	< 5.00	6.00 to 7.00	< 5.00	
Cc1cn2cc(NC(=O)c3sc(C4CCN(C)CC4)cc3F)cc(F)c2n1 [Compound 618]	< 5.00	5.00 to 6.00	5.00 to 6.00	5.00 to 6.00	
Cc1cn2cc(-c3cc(F)c(C(=O)N[C@H]4CCN[C@H](C)C4)s3)nc2c(C)n1 [Compound 583]	< 5.00	< 5.00	5.00 to 6.00	< 5.00	
Cc1cn2nc(NC(=O)c3sc([C@@H]4CCN[C@H](C)C4)cc3F)cc(C)c2n1 [Compound 576]	6.00 to 7.00	6.00 to 7.00	> 7.00	6.00 to 7.00	
Cc1cn2cc(NC(=O)c3cc(F)c(C4CCNCC4)s3)cc(F)c2n1 [Compound 661]	< 5.00	< 5.00	5.00 to 6.00		
Cc1cn2cc(NC(=O)c3cc(Cl)c(C4CCNCC4)s3)cc(F)c2n1 [Compound 666]	5.00 to 6.00		6.00 to 7.00	5.00 to 6.00	
Cn1cc2c(F)cc(NC(=O)c3sc(C4CCNCC4)cc3F)cc2n1 [Compound 656]	6.00 to 7.00		> 7.00	5.00 to 6.00	
Cc1cn2cc(NC(=O)c3sc(C4C[C@@H](C)N[C@@H](C)C4)cc3F)cc(F)c2n1 (stereo partly shown) [Compound 620]	5.00 to 6.00		6.00 to 7.00	5.00 to 6.00	
CCC1CN(c2cc(F)c(C(=O)Nc3cc(F)c4nc(C)cn4c3)s2)CCN1 (stereo not shown) [Compound 603]	5.00 to 6.00	< 5.00	6.00 to 7.00		
Cc1cn2cc(-c3sc(C(=O)NC4CCNCC4)c(Cl)c3C#N)cc(F)c2n1 [Compound 671]	5.00 to 6.00		6.00 to 7.00	< 5.00	
Cc1cn2cc(NC(=O)c3sc([C@H]4CCN[C@@H](C)C4)cc3F)cc(F)c2n1 [Compound 590]	6.00 to 7.00	6.00 to 7.00	6.00 to 7.00		
COc1cc(N2CCNC(C)C2)sc1C(=O)Nc1cc(F)c2nc(C)cn2c1 (stereo not shown) [Compound 597]	< 5.00	< 5.00	6.00 to 7.00		
Cc1cn2cc(NC(=O)c3sc(C4CCNCC4)cc3F)cc(F)c2n1 [Compound 650]					pIC50 (HTT mRNA [1]; decrease in CJ mRNA levels, read-out: HTT IC50): 5.00 to 6.00; pIC50 (MYB mRNA [2]; decrease in CJ mRNA levels, read-out: MYB IC50): 6.00 to 7.00; pIC50 (SMN2 mRNA; decrease in CJ mRNA levels, read-out: SMN2 IC50): < 5.00
Cc1cn2cc(NC(=O)c3sc([C@H]4CCN[C@H](C)C4)cc3F)cc(C(F)(F)F)c2n1 [Compound 669]	6.00 to 7.00		> 7.00	< 5.00	
Cc1nc2c(F)cc(NC(=O)c3sc(N4CCNC(C)C4)cc3F)cc2s1 (stereo not shown) [Compound 638]	< 5.00		< 5.00	> 7.00	
Cn1cc2ccc(NC(=O)c3sc(C4CCNCC4)cc3F)cc2n1 [Compound 655]	6.00 to 7.00		> 7.00	5.00 to 6.00	
Cc1cn2cc(NC(=O)c3sc(C4CCNCC4)c(C#N)c3Cl)cc(F)c2n1 [Compound 670]	5.00 to 6.00		6.00 to 7.00	< 5.00	
Cc1cn2nc(NC(=O)c3sc(C4CCNCC4)cc3F)cc2c(C)n1 [Compound 664]	< 5.00		< 5.00	< 5.00	
Cc1cn2cc(NC(=O)c3ccc(N4CCN(C)C(C)C4)c4ccnnc34)cc(F)c2n1 (stereo not shown) [Compound 129]					pIC50 (HTT mRNA [1]; Homo sapiens, canonical junction qPCR, read-out: HTT IC50 (decrease in CJ mRNA levels)): 5.00 to 6.00; pIC50 (MYB mRNA [3]; [8]): 6.00 to 7.00; AC50 (MYB mRNA [3]; [9]): 100 to 1000 nM; pIC50 (HTT mRNA [4]; [8]): 5.00 to 6.00; AC50 (HTT mRNA [4]; [9]): 1000 to 10000 nM; pIC50 (MYB mRNA [2]; Homo sapiens, canonical junction qPCR, read-out: MYB IC50 (decrease in CJ mRNA levels)): 6.00 to 7.00; pIC50 (SMN2 mRNA; Homo sapiens, canonical junction qPCR, read-out: SMN2 IC50 (decrease in CJ mRNA levels)): > 7.00
Cc1cn2cc(NC(=O)c3sc(C4CCNCC4)cc3F)cc(Cl)c2n1 [Compound 654]	6.00 to 7.00		5.00 to 6.00	5.00 to 6.00	
Cc1cn2cc(NC(=O)c3sc(N4C[C@H]5CC[C@@H](C4)N5)cc3F)cc(F)c2n1 [Compound 616]	< 5.00		5.00 to 6.00	< 5.00	
Cc1cn2cc(NC(=O)c3sc(C4CCNCC4)cc3F)nc2c(C)n1 [Compound 667]	< 5.00		< 5.00	< 5.00	
Cc1cn2cc(NC(=O)c3sc(C4CCNCC4)c(C)c3F)cc(F)c2n1 [Compound 649]	6.00 to 7.00		6.00 to 7.00	5.00 to 6.00	
